Experimental data: publication PMC12503911, “Cytotoxicity of Atropisomeric [1,1′‐Binaphthalene]‐2,2′‐Diamines (BINAM) and Analogs in Human Cancer Cells: Enantioselectivity, Structure–Activity Relationships, and Mechanism” (Chemmedchem, 2025)
Where two headings read alike, the source gives them in different places.

Assays:
Assay in all cases: biochemical
Set-up in all cases: 33PanQinase radiometric kinase activity assay, residual activity in % of control, contract lab Reaction Biology
Settings in all cases: mean of intraexperimental duplicates, n = 1
CHK1 = biological target: T1, CHK1 (Homo sapiens, UniProt O14757)
T1 construct: gene CHEK1
T1 sequence (O14757 1-476): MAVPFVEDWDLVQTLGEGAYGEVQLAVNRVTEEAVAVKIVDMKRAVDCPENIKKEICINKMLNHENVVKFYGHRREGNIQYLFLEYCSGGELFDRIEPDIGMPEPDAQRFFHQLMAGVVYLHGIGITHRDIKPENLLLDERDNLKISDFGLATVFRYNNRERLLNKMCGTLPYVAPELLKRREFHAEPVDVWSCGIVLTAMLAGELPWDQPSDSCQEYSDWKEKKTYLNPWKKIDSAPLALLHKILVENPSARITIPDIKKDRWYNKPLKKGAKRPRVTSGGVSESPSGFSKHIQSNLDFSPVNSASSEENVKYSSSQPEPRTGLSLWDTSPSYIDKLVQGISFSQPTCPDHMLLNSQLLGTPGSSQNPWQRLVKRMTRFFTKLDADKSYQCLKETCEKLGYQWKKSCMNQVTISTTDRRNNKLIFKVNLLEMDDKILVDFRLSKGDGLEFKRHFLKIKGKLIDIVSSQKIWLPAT
Method: (§1) Kinase Screening was performed at Reaction Biology (Freiburg, Germany) by using the ^33PanQinase Assay.^[ [90] ^] Based on this knowledge, we commissioned a kinase screening by the firm Reaction Biology, targeting those kinases whose inhibition has shown an indirect effect on microtubules. In our selection, we included additional kinases that are known to be involved in centrosome amplification (PLK4^[ [82] ^]), centrosome clustering (CDK1/2,^[ [83] ^] PLK1^[ [84] ^]), spindle multipolarity (SRC^[ [85] ^]), microtubule dynamics (AKT1^[ [86] ^]), and LIMK1/2 activation (ROCK1^[ [87] ^]) or are crucial for the mitosis (BUB1B, NEK2/9, WEE1^[ [88] ^]). Nonetheless, 1(R) and 1(S) at 10 µM had almost no inhibitory effects on any of the chosen kinases (Table 4 ). Only Aurora A (mean residual activity for 1(R): 86%, 1(S): 98%) and ASK1 (mean residual activity for 1(R): 90%, 1(S): 117%) were slightly enantioselectively impacted. However, we theorize that those marginal inhibitions are not explanatory for the antiproliferative and morphological effects of 1(R) on cancer cells.

SRC = SRC (Homo sapiens, UniProt P12931)
Method: as §1

BUB1B = BUB1B (Homo sapiens, UniProt O60566)
Method: as §1

PLK4 = biological target: T2, PLK4 (Homo sapiens, UniProt O00444)
T2 sequence (O00444 1-970): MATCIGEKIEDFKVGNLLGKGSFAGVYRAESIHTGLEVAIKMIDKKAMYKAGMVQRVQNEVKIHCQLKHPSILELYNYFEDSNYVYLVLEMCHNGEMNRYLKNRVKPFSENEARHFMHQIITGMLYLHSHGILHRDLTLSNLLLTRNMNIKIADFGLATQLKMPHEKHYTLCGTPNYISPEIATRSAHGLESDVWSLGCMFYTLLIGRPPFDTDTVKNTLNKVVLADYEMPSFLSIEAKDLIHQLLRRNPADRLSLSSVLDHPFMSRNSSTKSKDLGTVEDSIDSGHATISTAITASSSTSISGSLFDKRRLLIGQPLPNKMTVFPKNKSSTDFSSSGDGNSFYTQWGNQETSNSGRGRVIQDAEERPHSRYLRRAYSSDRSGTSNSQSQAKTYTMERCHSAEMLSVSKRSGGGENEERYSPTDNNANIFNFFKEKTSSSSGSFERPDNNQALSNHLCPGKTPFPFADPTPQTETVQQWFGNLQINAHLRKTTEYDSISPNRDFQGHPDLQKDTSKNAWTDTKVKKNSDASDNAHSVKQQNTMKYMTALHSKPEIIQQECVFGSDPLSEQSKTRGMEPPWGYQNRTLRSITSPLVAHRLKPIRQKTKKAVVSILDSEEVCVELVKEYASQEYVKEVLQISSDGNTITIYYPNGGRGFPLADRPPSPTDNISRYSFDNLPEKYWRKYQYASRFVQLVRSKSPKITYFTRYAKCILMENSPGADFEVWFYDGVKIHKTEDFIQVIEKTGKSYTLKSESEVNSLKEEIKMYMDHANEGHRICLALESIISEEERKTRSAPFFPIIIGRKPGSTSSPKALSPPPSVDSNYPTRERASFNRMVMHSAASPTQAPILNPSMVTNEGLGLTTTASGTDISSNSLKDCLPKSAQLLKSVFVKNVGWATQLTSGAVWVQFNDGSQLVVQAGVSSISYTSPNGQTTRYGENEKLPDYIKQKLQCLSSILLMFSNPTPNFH
Method: as §1

AKT1 = AKT1 (Homo sapiens, UniProt P31749)
Method: as §1

PLK1 = PLK1 (Homo sapiens, UniProt P53350)
Method: as §1

[1] = read-out: Residual activities [% of control] / 1(R) 10 µM
[2] = read-out: Residual activities [% of control] / 1(S) 10 µM

Chain of SRC (P12931 whole entry): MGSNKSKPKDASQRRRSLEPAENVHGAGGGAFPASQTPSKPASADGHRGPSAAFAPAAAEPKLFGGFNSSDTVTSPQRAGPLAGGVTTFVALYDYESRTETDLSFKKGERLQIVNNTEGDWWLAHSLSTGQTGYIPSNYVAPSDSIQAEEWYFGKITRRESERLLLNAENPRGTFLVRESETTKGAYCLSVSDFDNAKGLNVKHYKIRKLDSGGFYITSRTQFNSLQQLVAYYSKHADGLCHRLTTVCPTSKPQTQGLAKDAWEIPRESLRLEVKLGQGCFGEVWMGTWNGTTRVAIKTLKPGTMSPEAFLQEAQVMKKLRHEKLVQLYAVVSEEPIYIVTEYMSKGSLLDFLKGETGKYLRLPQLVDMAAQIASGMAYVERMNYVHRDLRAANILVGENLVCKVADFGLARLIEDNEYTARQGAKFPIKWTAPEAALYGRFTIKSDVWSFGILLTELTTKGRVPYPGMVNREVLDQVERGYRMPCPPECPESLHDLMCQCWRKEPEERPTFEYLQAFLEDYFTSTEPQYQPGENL
Chain of PLK1 (P53350 whole entry): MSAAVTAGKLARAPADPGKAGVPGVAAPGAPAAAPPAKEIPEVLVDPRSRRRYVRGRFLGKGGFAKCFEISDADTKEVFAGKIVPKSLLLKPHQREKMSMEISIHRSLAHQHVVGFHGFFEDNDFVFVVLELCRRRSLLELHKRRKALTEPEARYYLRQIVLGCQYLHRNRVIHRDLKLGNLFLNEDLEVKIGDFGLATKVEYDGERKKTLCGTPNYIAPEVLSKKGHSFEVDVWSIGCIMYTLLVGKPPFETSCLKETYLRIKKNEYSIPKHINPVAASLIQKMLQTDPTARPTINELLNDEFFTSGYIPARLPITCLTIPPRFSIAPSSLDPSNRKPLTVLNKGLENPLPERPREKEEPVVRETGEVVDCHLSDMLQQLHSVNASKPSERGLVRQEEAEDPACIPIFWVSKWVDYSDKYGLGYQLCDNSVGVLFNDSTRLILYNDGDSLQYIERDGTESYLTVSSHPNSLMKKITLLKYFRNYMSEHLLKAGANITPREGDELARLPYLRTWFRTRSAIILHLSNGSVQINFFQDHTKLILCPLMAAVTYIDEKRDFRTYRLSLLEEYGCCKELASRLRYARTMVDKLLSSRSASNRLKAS
Chain of BUB1B (O60566 whole entry): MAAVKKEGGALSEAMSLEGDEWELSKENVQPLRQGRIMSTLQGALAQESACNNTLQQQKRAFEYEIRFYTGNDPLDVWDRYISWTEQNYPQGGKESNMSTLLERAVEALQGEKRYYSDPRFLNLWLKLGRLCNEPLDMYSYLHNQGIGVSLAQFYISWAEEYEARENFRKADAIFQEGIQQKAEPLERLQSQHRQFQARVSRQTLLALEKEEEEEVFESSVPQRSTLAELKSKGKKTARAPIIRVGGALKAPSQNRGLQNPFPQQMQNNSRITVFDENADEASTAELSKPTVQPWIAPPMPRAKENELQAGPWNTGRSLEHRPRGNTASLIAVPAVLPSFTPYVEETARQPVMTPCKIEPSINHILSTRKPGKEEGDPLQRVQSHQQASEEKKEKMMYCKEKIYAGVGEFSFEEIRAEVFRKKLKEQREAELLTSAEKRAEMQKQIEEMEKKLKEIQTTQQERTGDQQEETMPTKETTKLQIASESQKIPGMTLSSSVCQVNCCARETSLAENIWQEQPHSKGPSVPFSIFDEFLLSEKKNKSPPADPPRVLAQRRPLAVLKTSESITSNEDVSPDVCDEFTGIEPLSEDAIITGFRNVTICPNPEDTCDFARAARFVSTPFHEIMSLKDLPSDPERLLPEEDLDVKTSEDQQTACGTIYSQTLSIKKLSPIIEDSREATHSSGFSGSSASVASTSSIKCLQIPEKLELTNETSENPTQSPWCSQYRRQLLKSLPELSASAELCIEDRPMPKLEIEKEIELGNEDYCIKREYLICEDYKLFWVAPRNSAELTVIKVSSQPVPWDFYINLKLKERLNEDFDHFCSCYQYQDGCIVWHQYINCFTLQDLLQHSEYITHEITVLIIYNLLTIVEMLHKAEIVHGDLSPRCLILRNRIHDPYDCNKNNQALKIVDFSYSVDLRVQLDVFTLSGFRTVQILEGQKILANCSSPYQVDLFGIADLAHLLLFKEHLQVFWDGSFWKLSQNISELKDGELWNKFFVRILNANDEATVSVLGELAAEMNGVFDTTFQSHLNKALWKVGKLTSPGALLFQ
Chain of AKT1 (P31749 whole entry): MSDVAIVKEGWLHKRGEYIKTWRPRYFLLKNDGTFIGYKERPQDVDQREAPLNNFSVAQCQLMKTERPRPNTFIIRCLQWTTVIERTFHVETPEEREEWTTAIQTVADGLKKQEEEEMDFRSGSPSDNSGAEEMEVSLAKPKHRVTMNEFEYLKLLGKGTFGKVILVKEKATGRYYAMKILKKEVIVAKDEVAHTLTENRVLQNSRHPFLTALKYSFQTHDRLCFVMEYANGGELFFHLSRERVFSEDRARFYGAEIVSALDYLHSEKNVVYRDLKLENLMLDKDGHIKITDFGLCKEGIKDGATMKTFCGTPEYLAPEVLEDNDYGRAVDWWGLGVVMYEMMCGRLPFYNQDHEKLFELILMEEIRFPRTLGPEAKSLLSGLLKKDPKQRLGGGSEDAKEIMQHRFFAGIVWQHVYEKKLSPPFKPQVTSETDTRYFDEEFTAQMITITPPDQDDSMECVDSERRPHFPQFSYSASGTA

SMILES	remaining activity at 10 µM (CHK1; [1])	remaining activity at 10 µM (SRC; [1])	remaining activity at 10 µM (BUB1B; [1])	remaining activity at 10 µM (PLK4; [1])	remaining activity at 10 µM (AKT1; [1])	remaining activity at 10 µM (PLK1; [1])	remaining activity at 10 µM (CHK1; [2])	remaining activity at 10 µM (SRC; [2])	remaining activity at 10 µM (BUB1B; [2])	remaining activity at 10 µM (PLK4; [2])	remaining activity at 10 µM (AKT1; [2])	remaining activity at 10 µM (PLK1; [2])
Nc1ccc2ccccc2c1-c1c(N)ccc2ccccc12 [1(R), (R)‐[1,1′‐binaphthalene]‐2,2′‐diamine]	94%	99%	118%	97%	99%	95%	–	–	–	–	–	–
Nc1ccc2ccccc2c1-c1c(N)ccc2ccccc12 [1(S), S‐BINAM]	–	–	–	–	–	–	95%	103%	111%	99%	101%	91%
